Reference: PubChem BioAssay (NCI)
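Each compound was tested at five concentrations against cells in 96-well plates for 48 hours. Abbreviation: GI50, concentration required for 50% inhibition of growth. The concentration for full growth arrest is given as TGI.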

What was measured:
Assay in all cases: NCI tumour cell line growth inhibition, 48 h
PC-3 prostate = system: PC-3 prostate
SK-OV-3 ovarian = system: SK-OV-3 ovarian
OVCAR-5 ovarian = system: OVCAR-5 ovarian
CCRF-CEM leukemia = system: CCRF-CEM leukemia
A549 NSCLC = system: A549 NSCLC
SN12C renal = system: SN12C renal
MCF7 breast = system: MCF7 breast
OVCAR-3 ovarian = system: OVCAR-3 ovarian
RPMI-8226 leukemia = system: RPMI-8226 leukemia
IGROV1 ovarian = system: IGROV1 ovarian
NCI-H460 lung = system: NCI-H460 lung
HOP-92 NSCLC = system: HOP-92 NSCLC
MDA-MB-435 = system: MDA-MB-435
EKVX NSCLC = system: EKVX NSCLC
UO-31 renal = system: UO-31 renal
LOX IMVI melanoma = system: LOX IMVI melanoma
DU-145 prostate = system: DU-145 prostate
SNB-75 CNS = system: SNB-75 CNS
SW-620 colon = system: SW-620 colon
HCT-15 colon = system: HCT-15 colon
HOP-62 NSCLC = system: HOP-62 NSCLC
SK-MEL-2 melanoma = system: SK-MEL-2 melanoma
NCI-H23 lung = system: NCI-H23 lung
MDA-MB-231 breast = system: MDA-MB-231 breast
K-562 leukemia = system: K-562 leukemia
MALME-3M melanoma = system: MALME-3M melanoma
HCC-2998 colon = system: HCC-2998 colon
BT-549 breast = system: BT-549 breast
HCT-116 colon = system: HCT-116 colon
786-0 renal = system: 786-0 renal
SF-539 CNS = system: SF-539 CNS
CAKI-1 renal = system: CAKI-1 renal
HS 578T breast = system: HS 578T breast
KM12 colon = system: KM12 colon
HL-60(TB) leukemia = system: HL-60(TB) leukemia
MOLT-4 leukemia = system: MOLT-4 leukemia
A498 renal = system: A498 renal
COLO 205 colon = system: COLO 205 colon
SR leukemia = system: SR leukemia
U251 CNS = system: U251 CNS
SK-MEL-28 melanoma = system: SK-MEL-28 melanoma
NCI-H522 lung = system: NCI-H522 lung
T-47D breast = system: T-47D breast
M14 melanoma = system: M14 melanoma
ACHN renal = system: ACHN renal
SNB-19 CNS = system: SNB-19 CNS
HT29 colon = system: HT29 colon
NCI/ADR-RES ovarian = system: NCI/ADR-RES ovarian
SK-MEL-5 melanoma = system: SK-MEL-5 melanoma
RXF 393 renal = system: RXF 393 renal
UACC-257 melanoma = system: UACC-257 melanoma
NCI-H226 lung = system: NCI-H226 lung
UACC-62 melanoma = system: UACC-62 melanoma
OVCAR-8 ovarian = system: OVCAR-8 ovarian
SF-295 CNS = system: SF-295 CNS
SF-268 CNS = system: SF-268 CNS
TK-10 renal = system: TK-10 renal
OVCAR-4 ovarian = system: OVCAR-4 ovarian

`COC(=O)C1C(O)C(C)C(=O)C(C)/C=C\C=C(C)C(=O)Nc2c(C)c(OC(C)=O)c3c(c2O)C(=O)C(C)=C2OCOC(=C23)C(C)=CC(C)(O)C(O)C(C)C1O` (stereo not given) gave a TGI (PC-3 prostate) of over 100 µM, a TGI (SK-OV-3 ovarian) of over 100 µM and a TGI (OVCAR-5 ovarian) of over 100 µM. For the same molecule, the TGI (CCRF-CEM leukemia) was 54.2 µM, the TGI (A549 NSCLC) was 61.2 µM and the TGI (SN12C renal) was over 100 µM. It also gave a TGI (MCF7 breast) of 90.6 µM, a TGI (OVCAR-3 ovarian) of over 100 µM and a TGI (RPMI-8226 leukemia) of over 100 µM. The TGI (IGROV1 ovarian) was 58.3 µM, the TGI (NCI-H460 lung) was 93.5 µM and the TGI (HOP-92 NSCLC) was over 100 µM. The TGI (MDA-MB-435) was over 100 µM, the TGI (EKVX NSCLC) was over 100 µM and the TGI (UO-31 renal) was over 100 µM. It also gave a TGI (LOX IMVI melanoma) of 57.8 µM, a TGI (DU-145 prostate) of 28.2 µM and a TGI (SNB-75 CNS) of over 100 µM. The TGI (SW-620 colon) was over 100 µM, the TGI (HCT-15 colon) was 45.6 µM and the TGI (HOP-62 NSCLC) was over 100 µM. For the same molecule, the TGI (SK-MEL-2 melanoma) was 86.1 µM, the TGI (NCI-H23 lung) was 35 µM and the TGI (MDA-MB-231 breast) was over 100 µM. It also gave a TGI (K-562 leukemia) of 49.4 µM, a TGI (MALME-3M melanoma) of 49.8 µM and a TGI (HCC-2998 colon) of 53.2 µM. It also gave a TGI (BT-549 breast) of over 100 µM, a TGI (HCT-116 colon) of 63.9 µM and a TGI (786-0 renal) of over 100 µM. The TGI (SF-539 CNS) was over 100 µM, the TGI (CAKI-1 renal) was over 100 µM and the TGI (HS 578T breast) was over 100 µM. For the same molecule, the TGI (KM12 colon) was over 100 µM, the TGI (HL-60(TB) leukemia) was 48.4 µM and the TGI (MOLT-4 leukemia) was over 100 µM. For the same molecule, the TGI (A498 renal) was 82.2 µM, the TGI (COLO 205 colon) was 49.3 µM and the TGI (SR leukemia) was 87 µM. It also gave a TGI (U251 CNS) of over 100 µM, a TGI (SK-MEL-28 melanoma) of 60.3 µM and a TGI (NCI-H522 lung) of over 100 µM. It also gave a TGI (T-47D breast) of over 100 µM, a TGI (M14 melanoma) of 65.9 µM and a TGI (ACHN renal) of over 100 µM. For the same molecule, the TGI (SNB-19 CNS) was over 100 µM, the TGI (HT29 colon) was 70 µM and the TGI (NCI/ADR-RES ovarian) was over 100 µM. For the same molecule, the TGI (SK-MEL-5 melanoma) was 27.6 µM, the TGI (RXF 393 renal) was over 100 µM and the TGI (UACC-257 melanoma) was 32.9 µM. The TGI (NCI-H226 lung) was over 100 µM, the TGI (UACC-62 melanoma) was 44.2 µM and the TGI (OVCAR-8 ovarian) was over 100 µM. The TGI (SF-295 CNS) was over 100 µM and the TGI (SF-268 CNS) was over 100 µM.

Molecule `COc1ccc(-c2c(-c3cc(OC)c(OC)c(OC)c3)nc3sc(C4CC4)nn23)cc1OC` has a GI50 (PC-3 prostate) of 9.66 µM, a TGI (PC-3 prostate) of over 100 µM and a GI50 (SK-OV-3 ovarian) of 2.9 µM. The TGI (SK-OV-3 ovarian) was 69 µM, the GI50 (OVCAR-5 ovarian) was 6.18 µM and the TGI (OVCAR-5 ovarian) was over 100 µM. It also gave a GI50 (CCRF-CEM leukemia) of 7.81 µM, a TGI (CCRF-CEM leukemia) of over 100 µM and a GI50 (A549 NSCLC) of 8.29 µM. For the same molecule, the TGI (A549 NSCLC) was over 100 µM, the GI50 (SN12C renal) was 10.7 µM and the TGI (SN12C renal) was over 100 µM. The GI50 (MCF7 breast) was 1.96 µM, the TGI (MCF7 breast) was over 100 µM and the GI50 (OVCAR-3 ovarian) was 7.11 µM. It also gave a TGI (OVCAR-3 ovarian) of over 100 µM, a GI50 (RPMI-8226 leukemia) of 3 µM and a TGI (RPMI-8226 leukemia) of 19.6 µM. For the same molecule, the GI50 (IGROV1 ovarian) was 5.28 µM, the TGI (IGROV1 ovarian) was over 100 µM and the GI50 (NCI-H460 lung) was 11.9 µM. For the same molecule, the TGI (NCI-H460 lung) was over 100 µM, the GI50 (HOP-92 NSCLC) was 0.58 µM and the TGI (HOP-92 NSCLC) was 9 µM. The GI50 (MDA-MB-435) was 6.81 µM, the TGI (MDA-MB-435) was over 100 µM and the GI50 (UO-31 renal) was 1.42 µM. For the same molecule, the TGI (UO-31 renal) was 90.5 µM, the GI50 (LOX IMVI melanoma) was 3.27 µM and the TGI (LOX IMVI melanoma) was over 100 µM. It also gave a GI50 (DU-145 prostate) of 51.3 µM, a TGI (DU-145 prostate) of over 100 µM and a GI50 (SNB-75 CNS) of 0.641 µM. The TGI (SNB-75 CNS) was over 100 µM, the GI50 (SW-620 colon) was 13.2 µM and the TGI (SW-620 colon) was over 100 µM. It also gave a GI50 (HCT-15 colon) of 2.42 µM, a TGI (HCT-15 colon) of 58.3 µM and a GI50 (HOP-62 NSCLC) of 1.58 µM. It also gave a TGI (HOP-62 NSCLC) of over 100 µM, a GI50 (SK-MEL-2 melanoma) of 7.52 µM and a TGI (SK-MEL-2 melanoma) of 50.8 µM. It also gave a GI50 (NCI-H23 lung) of 11.6 µM, a TGI (NCI-H23 lung) of over 100 µM and a GI50 (MDA-MB-231 breast) of 2.72 µM. The TGI (MDA-MB-231 breast) was over 100 µM, the GI50 (K-562 leukemia) was 10 µM and the TGI (K-562 leukemia) was over 100 µM. The GI50 (MALME-3M melanoma) was 18.1 µM, the TGI (MALME-3M melanoma) was 75.2 µM and the GI50 (TK-10 renal) was 2.6 µM. It also gave a TGI (TK-10 renal) of 37.3 µM, a GI50 (HCC-2998 colon) of 12.3 µM and a TGI (HCC-2998 colon) of over 100 µM. The GI50 (BT-549 breast) was 10.2 µM, the TGI (BT-549 breast) was over 100 µM and the GI50 (OVCAR-4 ovarian) was 3.26 µM. The TGI (OVCAR-4 ovarian) was over 100 µM, the GI50 (HCT-116 colon) was 4.79 µM and the TGI (HCT-116 colon) was over 100 µM. The GI50 (786-0 renal) was 4.66 µM, the TGI (786-0 renal) was over 100 µM and the GI50 (SF-539 CNS) was 5.62 µM. For the same molecule, the TGI (SF-539 CNS) was over 100 µM, the GI50 (CAKI-1 renal) was 0.943 µM and the TGI (CAKI-1 renal) was over 100 µM. It also gave a GI50 (HS 578T breast) of 4.19 µM, a TGI (HS 578T breast) of over 100 µM and a GI50 (KM12 colon) of 17.5 µM. The TGI (KM12 colon) was over 100 µM, the GI50 (HL-60(TB) leukemia) was 1.68 µM and the TGI (HL-60(TB) leukemia) was 41.6 µM. It also gave a GI50 (MOLT-4 leukemia) of 9.94 µM, a TGI (MOLT-4 leukemia) of 72 µM and a GI50 (A498 renal) of 0.75 µM. The TGI (A498 renal) was 7.84 µM, the GI50 (COLO 205 colon) was 3.11 µM and the TGI (COLO 205 colon) was 20.2 µM. The GI50 (SR leukemia) was 3.73 µM, the TGI (SR leukemia) was over 100 µM and the GI50 (U251 CNS) was 8.15 µM. It also gave a TGI (U251 CNS) of over 100 µM, a GI50 (SK-MEL-28 melanoma) of 5.83 µM and a TGI (SK-MEL-28 melanoma) of over 100 µM. For the same molecule, the GI50 (NCI-H522 lung) was 1.7 µM, the TGI (NCI-H522 lung) was 40 µM and the GI50 (T-47D breast) was 1.51 µM. It also gave a TGI (T-47D breast) of 30.5 µM, a GI50 (M14 melanoma) of 6.42 µM and a TGI (M14 melanoma) of over 100 µM. The GI50 (ACHN renal) was 2.99 µM, the TGI (ACHN renal) was 42.6 µM and the GI50 (SNB-19 CNS) was 9.04 µM. The TGI (SNB-19 CNS) was over 100 µM, the GI50 (HT29 colon) was 3.48 µM and the TGI (HT29 colon) was over 100 µM. For the same molecule, the GI50 (NCI/ADR-RES ovarian) was 7.35 µM, the TGI (NCI/ADR-RES ovarian) was over 100 µM and the GI50 (SK-MEL-5 melanoma) was 2.39 µM. The TGI (SK-MEL-5 melanoma) was 15 µM, the GI50 (RXF 393 renal) was 5.46 µM and the TGI (RXF 393 renal) was 43 µM. For the same molecule, the GI50 (UACC-257 melanoma) was 9.68 µM, the TGI (UACC-257 melanoma) was over 100 µM and the GI50 (NCI-H226 lung) was 16.3 µM. For the same molecule, the TGI (NCI-H226 lung) was over 100 µM, the GI50 (UACC-62 melanoma) was 1.94 µM and the TGI (UACC-62 melanoma) was 40.4 µM. For the same molecule, the GI50 (OVCAR-8 ovarian) was 6.13 µM, the TGI (OVCAR-8 ovarian) was over 100 µM and the GI50 (SF-295 CNS) was 6.11 µM. For the same molecule, the TGI (SF-295 CNS) was over 100 µM, the GI50 (SF-268 CNS) was 32.8 µM and the TGI (SF-268 CNS) was over 100 µM.
